Reference: patent US9475817B2 (BRISTOL-MYERS SQUIBB COMPANY, priority 2012, dated 2016)

How the values were obtained:
CK1ε = CK1ε (Homo sapiens (Human), UniProt P49674); test: CK1ε kinase assay (Caliper LabChip, fluoresceinated peptide substrate); type: biochemical; conditions: 200 pM CK1ε, 50 μM ATP, 1.5 μM peptide substrate, 22 hours room temperature
Protocol: (§1) CK1ε and CK1δ Kinase Assays
(§2) The kinase assay was performed in V-bottom 384-well plates. […] The reaction was incubated at room temperature for 22 hours and terminated by adding 45 μl of 35 mM EDTA to each sample. […] Compounds were dissolved at 10 mM in dimethylsulfoxide (DMSO) and evaluated at eleven concentrations. IC50 values were derived by non-linear regression analysis.

CK1δ = CK1δ (Homo sapiens (Human), UniProt P48730); test: CK1δ kinase assay (Caliper LabChip, fluoresceinated peptide substrate); type: biochemical; conditions: 200 pM CK1δ, 50 μM ATP, 1.5 μM peptide substrate, 22 hours room temperature
Protocol: as §1, §2

CK1ε, sequence (P49674 whole entry): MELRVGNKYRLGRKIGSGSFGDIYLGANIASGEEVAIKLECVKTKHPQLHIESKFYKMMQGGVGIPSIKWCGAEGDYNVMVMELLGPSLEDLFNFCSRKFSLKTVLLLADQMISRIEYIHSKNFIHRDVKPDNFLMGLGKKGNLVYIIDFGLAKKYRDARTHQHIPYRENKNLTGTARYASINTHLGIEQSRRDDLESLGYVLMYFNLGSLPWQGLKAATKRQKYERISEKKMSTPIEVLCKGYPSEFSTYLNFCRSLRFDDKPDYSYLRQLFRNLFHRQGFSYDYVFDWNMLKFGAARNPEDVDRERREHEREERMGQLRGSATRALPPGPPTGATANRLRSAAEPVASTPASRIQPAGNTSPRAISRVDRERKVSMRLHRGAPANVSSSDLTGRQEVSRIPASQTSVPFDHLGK
CK1δ, sequence (P48730 whole entry): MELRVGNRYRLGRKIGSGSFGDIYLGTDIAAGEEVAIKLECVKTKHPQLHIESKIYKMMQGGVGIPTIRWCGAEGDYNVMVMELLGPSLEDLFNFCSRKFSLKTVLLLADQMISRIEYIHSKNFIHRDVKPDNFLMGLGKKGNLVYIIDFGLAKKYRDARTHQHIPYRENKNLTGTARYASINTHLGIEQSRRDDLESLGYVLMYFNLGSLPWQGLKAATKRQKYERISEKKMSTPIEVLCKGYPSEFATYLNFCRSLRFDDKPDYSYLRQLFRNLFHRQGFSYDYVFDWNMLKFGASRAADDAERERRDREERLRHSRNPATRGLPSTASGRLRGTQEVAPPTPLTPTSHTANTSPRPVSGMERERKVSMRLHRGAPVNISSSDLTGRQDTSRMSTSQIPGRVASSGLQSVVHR

Structure (SMILES)	IC50 (CK1ε)	IC50 (CK1δ)
Cn1nc(-c2ccc(F)cc2)c(-c2ccc3nc(NC(=O)c4ccncc4)cn3n2)c1N1CCN(CCC(F)(F)F)CC1 [Compound 130, N-(6-(3-(4-Fluorophenyl)-1-methyl-5-(4-(3,3,3-trifluoropropyl)piperazin-1-yl)-1H-pyrazol-4-yl)imidazo[1,2-b]pyridazin-2-yl)isonicotinamide]	23.5 nM	1.4 nM
Cn1nc(-c2ccc(F)cc2)c(-c2ccc3nc(NC(=O)c4ccnc(N5CCOCC5)c4)cn3n2)c1N1CCN(CCC(F)(F)F)CC1 [Compound 135, N-(6-(3-(4-Fluorophenyl)-1-methyl-5-(4-(3,3,3-trifluoropropyl)piperazin-1-yl)-1H-pyrazol-4-yl)imidazo[1,2-b]pyridazin-2-yl)-2-morpholinoisonicotinamide]	35 nM	1.6 nM
Cn1nc(-c2ccc(F)cc2)c(-c2ccc3nc(NC(=O)c4ccnc(N5CCOCC5)c4)cn3n2)c1N1CCN(Cc2ccon2)CC1 [Compound 136, N-(6-(3-(4-Fluorophenyl)-5-(4-(isoxazol-3-ylmethyl)piperazin-1-yl)-1-methyl-1H-pyrazol-4-yl)imidazo[1,2-b]pyridazin-2-yl)-2-morpholinoisonicotinamide]	12 nM	0.8 nM
Cn1nc(-c2ccc(F)cc2)c(-c2ccc3nc(NC(=O)c4ccnc(N5CCOCC5)c4)cn3n2)c1N1CCN(C(=O)c2ccon2)CC1 [Compound 137, N-(6-(3-(4-Fluorophenyl)-5-(4-(isoxazole-3-carbonyl)piperazin-1-yl)-1-methyl-1H-pyrazol-4-yl)imidazo[1,2-b]pyridazin-2-yl)-2-morpholinoisonicotinamide]	10.1 nM	1 nM
Cn1nc(-c2ccc(F)cc2)c(-c2ccc3nc(NC(=O)c4ccnc(N5CCOCC5)c4)cn3n2)c1N1CCN(C(=O)CC(F)(F)F)CC1 [Compound 138, N-(6-(3-(4-Fluorophenyl)-1-methyl-5-(4-(3,3,3-trifluoropropanoyl)piperazin-1-yl)-1H-pyrazol-4-yl)imidazo[1,2-b]pyridazin-2-yl)-2-morpholinoisonicotinamide]	9.3 nM	1.6 nM
Cn1nc(-c2ccc(F)cc2)c(-c2ccc3nc(NC(=O)c4ccnc(N5CCOCC5)c4)cn3n2)c1N1CCN(CCCF)CC1 [Compound 139, N-(6-(3-(4-Fluorophenyl)-5-(4-(3-fluoropropyl)piperazin-1-yl)-1-methyl-1H-pyrazol-4-yl)imidazo[1,2-b]pyridazin-2-yl)-2-morpholinoisonicotinamide]	9.3 nM	1.4 nM
Cn1nc(-c2ccc(F)cc2)c(-c2ccc3nc(NC(=O)c4ccnc(N)c4)cn3n2)c1N1CCN(CCC(F)(F)F)CC1 [Compound 141, 2-Amino-N-(6-(3-(4-fluorophenyl)-1-methyl-5-(4-(3,3,3-trifluoropropyl)piperazin-1-yl)-1H-pyrazol-4-yl)imidazo[1,2-b]pyridazin-2-yl)isonicotinamide]	32 nM	2.5 nM
Cn1nc(-c2ccc(F)cc2)c(-c2ccc3nc(NC(=O)c4cc(F)nc(F)c4)cn3n2)c1N1CCOCC1 [Compound 145, 2,6-difluoro-N-(6-(3-(4-fluorophenyl)-1-methyl-5-morpholino-1H-pyrazol-4-yl)imidazo[1,2-b]pyridazin-2-yl) isonicotinamide]	22.8 nM	1.4 nM

Molecules with a lower IC50 (CK1ε), results first:

IC50 (CK1ε)	IC50 (CK1δ)	Structure (SMILES)
3.1 nM	0.3 nM	Cn1nc(-c2ccc(F)cc2)c(-c2ccc3nc(NC(=O)c4ccncc4)cn3n2)c1N1CCN(Cc2ccon2)CC1 [Compound 131, N-(6-(3-(4-Fluorophenyl)-5-(4-(isoxazol-3-ylmethyl)piperazin-1-yl)-1-methyl-1H-pyrazol-4-yl)imidazo[1,2-b]pyridazin-2-yl)isonicotinamide]
6.7 nM	0.6 nM	Cn1nc(-c2ccc(F)cc2)c(-c2ccc3nc(NC(=O)c4ccncc4)cn3n2)c1N1CCN(C(=O)CC(F)(F)F)CC1 [Compound 132, N-(6-(3-(4-Fluorophenyl)-1-methyl-5-(4-(3,3,3-trifluoropropanoyl)piperazin-1-yl)-1H-pyrazol-4-yl)imidazo[1,2-b]pyridazin-2-yl)isonicotinamide]
8.1 nM	1 nM	Cn1nc(-c2ccc(F)cc2)c(-c2ccc3nc(NC(=O)c4ccncc4)cn3n2)c1N1CCN(C(=O)c2ccon2)CC1 [Compound 133, N-(6-(3-(4-Fluorophenyl)-5-(4-(isoxazole-3-carbonyl)piperazin-1-yl)-1-methyl-1H-pyrazol-4-yl)imidazo[1,2-b]pyridazin-2-yl)isonicotinamide]
2.4 nM	2.5 nM	Cn1nc(-c2ccc(F)cc2)c(-c2ccc3nc(NC(=O)c4ccnc(N)c4)cn3n2)c1N1CCNCC1 [Compound 140, 2-Amino-N-(6-(3-(4-fluorophenyl)-1-methyl-5-(piperazin-1-yl)-1H-pyrazol-4-yl)imidazo[1,2-b]pyridazin-2-yl)isonicotinamide]
2.2 nM	0.3 nM	Cn1nc(-c2ccc(F)cc2)c(-c2ccc3nc(NC(=O)c4ccnc(N)c4)cn3n2)c1N1CCN(Cc2ccon2)CC1 [Compound 142, 2-Amino-N-(6-(3-(4-fluorophenyl)-5-(4-(isoxazol-3-ylmethyl)piperazin-1-yl)-1-methyl-1H-pyrazol-4-yl)imidazo[1,2-b]pyridazin-2-yl)isonicotinamide]
4.9 nM	0.5 nM	Cc1nc(-c2cccnc2)sc1C(=O)Nc1cn2nc(-c3c(-c4ccc(F)cc4)nn(C)c3N3CCOCC3)ccc2n1 [Compound 146, N-(6-(3-(4-fluorophenyl)-1-methyl-5-morpholino-1H-pyrazol-4-yl)imidazo [1,2-b]pyridazin-2-yl)-4-methyl-2-(pyridin-3-yl)thiazole-5-carboxamide]
7.9 nM	0.7 nM	Cc1nc(-c2ccncc2)sc1C(=O)Nc1cn2nc(-c3c(-c4ccc(F)cc4)nn(C)c3N3CCOCC3)ccc2n1 [Compound 147, N-(6-(3-(4-fluorophenyl)-1-methyl-5-morpholino-1H-pyrazol-4-yl)imidazo [1,2-b]pyridazin-2-yl)-4-methyl-2-(pyridin-4-yl)thiazole-5-carboxamide]
2.6 nM	2.1 nM	Cn1nc(-c2ccc(F)cc2)c(-c2ccc3nc(NC(=O)c4ccnc(F)c4)cn3n2)c1C1CCNCC1 [Compound 148, 2-Fluoro-N-(6-(3-(4-fluorophenyl)-1-methyl-5-(piperidin-4-yl)-1H-pyrazol-4-yl)imidazo[1,2-b]pyridazin-2-yl)isonicotinamide]
1 nM	1.1 nM	Cn1nc(-c2ccc(F)cc2)c(-c2ccc3nc(NC(=O)c4ccnc(F)c4)cn3n2)c1C1CCN(Cc2ccon2)CC1 [Compound 150, 2-Fluoro-N-(6-(3-(4-fluorophenyl)-5-(1-(isoxazol-3-ylmethyl)piperidin-4-yl)-1-methyl-1H-pyrazol-4-yl)imidazo[1,2-b]pyridazin-2-yl)isonicotinamide]
5.7 nM	0.5 nM	Cn1nc(-c2ccc(F)cc2)c(-c2ccc3nc(NC(=O)c4ccnc(F)c4)cn3n2)c1C1CCN(C(=O)CC(F)(F)F)CC1 [Compound 151, 2-Fluoro-N-(6-(3-(4-fluorophenyl)-1-methyl-5-(1-(3,3,3-trifluoropropanoyl)piperidin-4-yl)-1H-pyrazol-4-yl)imidazo[1,2-b]pyridazin-2-yl)isonicotinamide]
